Molecular target: T1, human PTH1 receptor (Homo sapiens, UniProt Q03431)
T1 sequence (Q03431 27-593): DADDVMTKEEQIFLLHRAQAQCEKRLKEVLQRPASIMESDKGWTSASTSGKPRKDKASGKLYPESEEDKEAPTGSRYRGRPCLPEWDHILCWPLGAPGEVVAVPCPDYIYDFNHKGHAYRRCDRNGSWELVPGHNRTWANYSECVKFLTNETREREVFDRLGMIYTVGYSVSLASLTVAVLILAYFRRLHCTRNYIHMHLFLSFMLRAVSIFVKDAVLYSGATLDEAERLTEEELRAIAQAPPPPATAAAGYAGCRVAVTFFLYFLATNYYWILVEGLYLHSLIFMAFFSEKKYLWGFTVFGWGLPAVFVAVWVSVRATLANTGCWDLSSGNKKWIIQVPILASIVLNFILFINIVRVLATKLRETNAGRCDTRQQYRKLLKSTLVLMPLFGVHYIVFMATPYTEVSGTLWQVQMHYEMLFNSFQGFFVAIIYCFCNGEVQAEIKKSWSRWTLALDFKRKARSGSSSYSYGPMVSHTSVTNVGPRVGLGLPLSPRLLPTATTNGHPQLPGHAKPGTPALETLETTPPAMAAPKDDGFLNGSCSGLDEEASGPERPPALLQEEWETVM
Experiment: In vitro cAMP signal activity in HKRK-B7 cells (LLC-PK1 cells overexpressing the human PTH1 receptor)
Format: cell-based
Conditions: HKRK-B7 cells, compound at 1×10^−3 M

[1] = cAMP produced as percentage of that produced by hPTH(1-34) at 100 nM

SMILES: O=C1NC(C2CCCCC2)=NC12CCN(S(=O)(=O)/C=C/c1ccc(S(=O)(=O)N(CCO)CCO)cc1C(F)(F)F)CC2 [Compound 496, 4-[(E)-2-(2-cyclohexyl-4-oxo-1,3,8-triaza-spiro[4.5]dec-1-ene-8-sulfonyl)-vinyl]-N,N-bis-(2-hydroxy-ethyl)-3-trifluoromethyl-benzenesulfonamide]
- cAMP production activity (%) [1]: 24%

SMILES: Cc1cc(S(=O)(=O)NCc2cccnc2)ccc1/C=C/S(=O)(=O)N1CCC2(CC1)N=C(c1cccc(C(F)(F)F)c1)NC2=O [Compound 591, 3-methyl-4-{(E)-2-[4-oxo-2-(3-trifluoromethyl-phenyl)-1,3,8-triaza-spiro[4.5]dec-1-ene-8-sulfonyl]-vinyl}-N-pyridin-3-ylmethyl-benzenesulfonamide]
- cAMP production activity (%) [1]: 34%

SMILES: CC(=O)Nc1ccc(CCS(=O)(=O)N2CCC3(CC2)N=C(C2CCC(c4ccc(Cl)cc4)CC2)NC3=O)c(C)c1 (stereo not shown) [Compound 920, N-[4-(2-{2-[4-(4-Chloro-phenyl)-cyclohexyl]-4-oxo-1,3,8-triaza-spiro[4.5]dec-1-ene-8-sulfonyl}-ethyl)-3-methyl-phenyl]-acetamide]
- cAMP production activity (%) [1]: 70%

SMILES: [2H]C([2H])([2H])C([2H])([2H])C([2H])([2H])C([2H])([2H])Oc1cc(C2=NC3(CCN(S(=O)(=O)/C=C/c4c(C)cc(C(=O)N5CCC(C)(O)CC5)cc4C)CC3)C(=O)N2)ccc1F [Compound 1211, 2-(3-[1,1,2,2,3,3,4,4,4-^2H9]butoxy-4-fluoro-phenyl)-8-{(E)-2-[4-(4-hydroxy-4-methyl-piperidine-1-carbonyl)-2,6-dimethyl-phenyl]-ethenesulfonyl}-1,3,8-triaza-spiro[4.5]dec-1-en-4-one]
- cAMP production activity (%) [1]: 99%

SMILES: O=C(NCc1ccccc1)c1cccc(C2=NC3(CCN(S(=O)(=O)c4cccc(Cl)c4)CC3)C(=O)N2)c1 [Compound 350, N-benzyl-3-[8-(3-chloro-benzenesulfonyl)-4-oxo-1,3,8-triaza-spiro[4.5]dec-1-en-2-yl]-benzamide]
- cAMP production activity (%) [1]: 5.5%

SMILES: O=C(c1cccc(C2=NC3(CCN(S(=O)(=O)c4cccc(Cl)c4)CC3)C(=O)N2)c1)N1CCOCC1 [Compound 348, 8-(3-Chloro-benzenesulfonyl)-2-[3-(morpholine-4-carbonyl)-phenyl]-1,3,8-triaza-spiro[4.5]dec-1-en-4-one]
- cAMP production activity (%) [1]: 5.6%

SMILES: Cc1cc(N2C(=O)CNC2=O)ccc1CCS(=O)(=O)N1CCC2(CC1)N=C(C1CCC(C(C)C)CC1)NC2=O (stereo not shown) [Compound 882, 3-(4-{2-[2-(4-isopropyl-cyclohexyl)-4-oxo-1,3,8-triaza-spiro[4.5]dec-1-ene-8-sulfonyl]-ethyl}-3-methyl-phenyl)-imidazolidine-2,4-dione]
- cAMP production activity (%) [1]: 70%

SMILES: O=C1NC(C2CCCCC2)=NC12CCN(S(=O)(=O)CCc1ccc3[nH]ccc3c1)CC2 [Compound 269, 2-cyclohexyl-8-[2-(1H-indol-5-yl)-ethanesulfonyl]-1,3,8-triaza-spiro[4.5]dec-1-en-4-one]
- cAMP production activity (%) [1]: 43%

SMILES: Cc1cc(NS(=O)(=O)NCCCO)ccc1/C=C/S(=O)(=O)N1CCC2(CC1)N=C(c1cccc(OC(F)(F)F)c1)NC2=O [Compound 743, N-(3-Hydroxy-propyl)-N′-(3-methyl-4-{(E)-2-[4-oxo-2-(3-trifluoromethoxy-phenyl)-1,3,8-triaza-spiro[4.5]dec-1-ene-8-sulfonyl]-vinyl}-phenyl)-sulfamide]
- cAMP production activity (%) [1]: 54%

SMILES: Cc1cc(C(=O)N(C)C)ccc1CCS(=O)(=O)N1CCC2(CC1)N=C(c1ccc(F)c(Cl)c1)NC2=O [Compound 89, 4-{2-[2-(3-chloro-4-fluoro-phenyl)-4-oxo-1,3,8-triaza-spiro[4.5]dec-1-ene-8-sulfonyl]-ethyl}-3,N,N-trimethyl-benzamide]
- cAMP production activity (%) [1]: 96%

SMILES: Cc1cc(C(=O)N(C)C)ccc1CCS(=O)(=O)N1CCC2(CC1)N=C(c1cc(C(F)(F)F)ccc1C)NC2=O [Compound 112, 3,N,N-trimethyl-4-{2-[2-(2-methyl-5-trifluoromethyl-phenyl)-4-oxo-1,3,8-triaza-spiro[4.5]dec-1-ene-8-sulfonyl]-ethyl}-benzamide]
- cAMP production activity (%) [1]: 77%

SMILES: Cc1cc(C(=O)N2CCC(F)(CO)CC2)ccc1CCS(=O)(=O)N1CCC2(CC1)N=C([C@H]1CC[C@H](CC=C(F)F)CC1)NC2=O [Compound 973, 2-[4-(3,3-Difluoro-allyl)-cyclohexyl]-8-{2-[4-(4-fluoro-4-hydroxymethyl-piperidine-1-carbonyl)-2-methyl-phenyl}-ethanesulfonyl]-1,3,8-triaza-spiro[4.5]dec-1-en-4-one]
- cAMP production activity (%) ([…], 0.1 µM): 112%

SMILES: Cc1cc(CN)cc(C)c1/C=C/S(=O)(=O)N1CCC2(CC1)N=C(C1CCC(CCC(F)(F)F)CC1)NC2=O (stereo not shown) [Compound 1290, 8-[(E)-2-(4-aminomethyl-2,6-dimethyl-phenyl)-ethenesulfonyl]-2-[4-(3,3,3-trifluoro-propyl)-cyclohexyl]-1,3,8-triaza-spiro[4.5]dec-1-en-4-one]
- cAMP production activity (%) [1]: 6.3%

SMILES: Cc1cc(N(CC#N)C(N)=O)ccc1CCS(=O)(=O)N1CCC2(CC1)N=C(c1cccc(OC(F)(F)F)c1)NC2=O [Compound 876, 1-cyanomethyl-1-(3-methyl-4-{2-[4-oxo-2-(3-trifluoromethoxy-phenyl)-1,3,8-triaza-spiro[4.5]dec-1-ene-8-sulfonyl]-ethyl}-phenyl)-urea]
- cAMP production activity (%) [1]: 22%

SMILES: CCCC[C@]1(F)CC[C@@H](C2=NC3(CCN(S(=O)(=O)CCc4ccc(NC(C)=O)cc4C)CC3)C(=O)N2)CC1 [Compound 1062, N-(4-{2-[2-(4-butyl-4-fluoro-cyclohexyl)-4-oxo-1,3,8-triaza-spiro[4.5]dec-1-ene-8-sulfonyl]-ethyl}-3-methyl-phenyl)-acetamide]
- cAMP production activity (%) [1]: 65%

SMILES: Cc1cc(C(=O)N(C)CCO)ccc1/C=C/S(=O)(=O)N1CCC2(CC1)N=C(c1cccc(C(F)(F)F)c1)NC2=O [Compound 214, N-(2-hydroxy-ethyl)-3,N-dimethyl-4-{(E)-2-[4-oxo-2-(3-trifluoromethyl-phenyl)-1,3,8-triaza-spiro[4.5]dec-1-ene-8-sulfonyl]-vinyl}-benzamide]
- cAMP production activity (%) [1]: 84%

SMILES: Cc1cc2ccc1CCS(=O)(=O)N1CCC3(CC1)N=C(NC3=O)c1cc(cc(C(F)(F)F)c1)OCCCCCNC(=O)CN(C)C2=O [Compound 1449]
- cAMP production activity (%) [1]: 18%

SMILES: Cc1cc(C(=O)N2CCN(c3ccc(F)cc3)CC2)ccc1CCS(=O)(=O)N1CCC2(CC1)N=C(c1cccc(C(F)(F)F)c1)NC2=O [Compound 375, 8-(2-{4-[4-(4-fluoro-phenyl)-piperazine-1-carbonyl]-2-methyl-phenyl}-ethanesulfonyl)-2-(3-trifluoromethyl-phenyl)-1,3,8-triaza-spiro[4.5]dec-1-en-4-one]
- cAMP production activity (%) [1]: 57%

SMILES: Cc1cc(N(C)C(N)=O)cc(C)c1CCS(=O)(=O)N1CCC2(CC1)N=C(C1CCC(C)CC1)N/C2=N/O (stereo not shown) [Compound 1371, 1-(4-{2-[4-[(E)-Hydroxyimino]-2-(4-methyl-cyclohexyl)-1,3,8-triaza-spiro[4.5]dec-1-ene-8-sulfonyl]-ethyl}-3,5-dimethyl-phenyl)-1-methyl-urea]
- cAMP production activity (%) [1]: 84%

— patent US9169254B2, “Spiroimidazolone derivative” (Chugai Seiyaku Kabushiki Kaisha, priority 2009, dated 2015)
